Reference: paper PMC11823679, “Protamine protects against vancomycin-induced kidney injury” (Antimicrobial Agents and Chemotherapy, 2025)
“Also recorded” adds a separate entry of the source.

Assays:
[1] = in vivo; cited from earlier work
Method: Additional work i ... || Despite the promise of protamine as a new treatment approach, this study is subject to several limitations. First, our study was performed in rats. While the rat model has shown strong relevance to the human condition ([14]) with respect to VAN, clinical trials are necessary to confirm the effect. Second, protamine delayed kidney injury by 1–3 days; however, a multi-pronged approach may be needed to fully suppress injury in vancomycin therapy that exceeds 2 days. Third, as noted above, protamine is not a viable therapeutic for patients who require heparin. Fourth, protamine itself is associate ...

OAT1 = OAT1 inhibition study (CHOK1 cells, p-aminohippurate substrate); assay type: cell-based; conditions: for Inhibition of OAT1 (in words): p-aminohippurate 10 µM
Method: (§1) Organic anion transporter (OAT1 and OAT3) and OCT2 inhibition studies with protamine sulfate were performed by Eurofins Scientific (St. Charles, MO, USA) as previously described ([38], [39]). Protamine sulfate was dissolved in DMSO to 1.0E-02 M and tested concurrently with p-aminohippurate 10 µM (substrate) for OAT1, ranitidine 10 µM (substrate) for OAT3, and metformin 100 µM (substrate) for OCT2. A pre-incubation time of 30 minutes was used, followed by 20 minutes of incubation with the substrate. CHOK1 cells were used in OAT1 and 3 experiments, and HEK cells were used in OCT2 experiments. The percentage of inhibition was calculated vs the percentage of control. The IC50 value (concentration causing a half-maximal inhibition of the control value) was determined by nonlinear regression analysis of the concentration-response curve from a Hill equation.
(§2) No data were excluded as outliers.

Urinary KIM-1 = Urinary KIM-1 kidney injury in rats given vancomycin and/or protamine
Method: Male Sprague-Dawley rats (n = 19; age 8–10 weeks; 268–304 g; Envigo, Indianapolis, IN, USA) underwent double jugular catheterization ([33]) (Fig. 3A). Surgery was performed under ketamine (100 mg/kg of body weight) and xyalzine (10 mg/kg of body weight) anesthesia with buprenorphine (0.02 mg/kg of body weight) given post-operatively for pain management. Animals were allowed to recover 4 days before the administration of any drug. Animals were housed in metabolic cages starting 1 day prior to day 0 with access to food and water ad libitum for the duration of the study (Fig. 3B).
Animals were divided into three experimental treatment protocols. Using a dedicated jugular vein for dosing, the animals received clinical grade intravenous protamine and/or vancomycin in doses allometrically scaled to humans according to the following protocols: (i) protamine sulfate (1.5 mg/kg of body weight) and vancomycin (150 mg/kg of body weight) (n = 6); (ii) protamine only (1.5 mg/kg of body weight) with saline sham (sham for volume of vancomycin) (n = 7); or (iii) vancomycin only (150 mg/kg of body weight) with saline sham (sham for volume of protamine) (n = 6) ([34][–][36]). Saline sham was given to match the volumes of protamine and vancomycin doses to maintain euvolemia. On day 0, all animals received only iohexol (51.8 mg/day) intravenously to establish baseline GFR measurements. Drugs were administered as described above by treatment protocols to all groups on days 1–4. Infusion times for each of the drugs include (i) protamine sulfate, 5 minutes; (ii) vancomycin and iohexol, 2 minutes; and (iii) saline sham, 5 or 2 minutes depending on what the sham was replacing.
Urine samples were collected daily, and volumes were measured starting from day 0 to day 4. Samples were centrifuged at 500 g for 10 minutes, and the resulting supernatant was aliquoted (1.5 mL) and stored at −80°C for renal biomarker analysis later.
Urinary samples were analyzed for KIM-1 using the Milliplex MAP Rat Kidney Toxicity Magnetic Bead Panel 1 (EMD Millipore Corporation, Charles, MO, USA) according to the manufacturer’s directions and as previously described ([34], [36], [37]). Briefly, neat urine aliquots were mixed with monoclonal antibody-coated magnetic microbeads (Bead Panel 1) and run on a 96-well plate, which also included a standard curve. Biomarker data were acquired, and concentrations were analyzed using Belysa Immunoassay Curve-Fitting Software V1 (MilliporeSigma, Darmstadt, Germany). The amount of urinary KIM-1 excreted over the 24-h collection period was obtained by multiplying the urinary concentration by 24-h urinary volume.
An omnibus test, i.e., joint tests (multi-degree of freedom) of the interaction and main effects, which is similar to the F test in ANOVA, was used initially (STATA 17.0 BE, StataCorp LLC, College Station, TX, USA). Only models with significant interaction at P < 0.05 were selected for post hoc analysis (i.e., identification of the difference between treatment groups and days). Margins were calculated for a full factorial of the variables, i.e., main effects for each variable and interactions. Referent groups were pre-treatment baseline values and protamine alone as a treatment, except where noted. […] LOWESS graphs were produced in R version 4.2.2 using ggplot2. […] All tests were two-tailed; a P < 0.05 was required for statistical significance. Graphs for cellular studies were generated using GraphPad version 9.3.1 and were fit with a log(inhibitor) vs normalized response function after log transformation.

opossum kidney cells = conditions: cited from earlier work
Excerpt: Based on chemical structure, we hypothesized that protamine might block megalin and decrease VAN. While relatively little information is available on the megalin-binding capacity of protamine, protamine shares binding sites with heparin (which is the current target for FDA-approved use) and megalin ([30], [31]). […] Megalin antagonists ... || Originally derived from salmon fish sperm (salmine), protamine is a highly positively charged protein consisting of 32 amino acids. Currently, it is widely used as an effective agent to neutralize heparin using electrostatic bonds made between the cationic arginine groups of protamine and the anionic heparin in a 1:1 ratio ([6]). Specifically, protamine shares binding sites with heparin (current target for FDA-approved use) and megalin ([30], [31]). On this note, a clinical limitation for the use of protamine arises for patients who require heparin infusions, such as post-diabetic foot infecti ...

OCT2 = OCT2 inhibition study (HEK cells, metformin substrate); assay type: cell-based; conditions: for Inhibition of OCT2 (in words): metformin 100 µM
Method: as §1, §2

OAT3 = OAT3 inhibition study (CHOK1 cells, ranitidine substrate); assay type: cell-based; conditions: for Inhibition of OAT3 (in words): ranitidine 10 µM
Method: as §1, §2

[2] = CHOK1 cells, listed as protamine

In the case of Protamine, the “Safety liabilities (in words)” value [1] is listed as “severe hypotension and anaphylactoid-like reactions”, the “Toxicities (in words)” value [1] is listed as “cardiopulmonary dysfunction and shock as well as antibody-mediated hypersensitivity reactions” and the “Inhibition of OAT1 (in words)” value (OAT1; CHOK1 cells) is listed as “does not appear to have significant inhibition on OAT1, OAT3, or OCT2”. For the same substance, the IC50 (OAT1; CHOK1 cells, p-aminohippurate 10 µM substrate, pre-incubation 30 minutes, 20 minutes with substrate, protamine sulfate in DMSO, Eurofins) was 100 µM, the “Inhibition of OAT1 (in words)” value (OAT1; [2]) was “No substantial inhibition; also recorded: does not have a significant inhibition on OAT1, OAT3, or OCT2 except at extremely high concentrations; also recorded: little to no inhibition” and the “IC50 ratio protamine vs probenecid” value (OAT1; OAT1) was 62.5 times higher. For the same substance, the “Inhibition of OAT-1” value (OAT1; at 0.1 mM protamine, Fig. 6) was under 50%, the “Protective effect against vancomycin-associated nephrotoxicity (in words)” value (Urinary KIM-1; addition of protamine to vancomycin) was “provides a protective effect against vancomycin-associated nephrotoxicity” and the “Delay of vancomycin-induced kidney injury as defined by urinary KIM-1” value (Urinary KIM-1; protamine added to vancomycin therapy) was 1 to 3 days. The “KIM-1 change from baseline of day 1 (in words)” value (Urinary KIM-1; rat, in vivo) was “did not have a KIM-1 increase over the 4 days”, the “KIM-1 compared to protamine alone (in words)” value (Urinary KIM-1; rat, in vivo) was “did not experience this increase on day 2” and the “KIM-1 compared to vancomycin alone (in words)” value (Urinary KIM-1; rat, in vivo) was “numerically similar to animals that received vancomycin alone”. The “Injury prevention (in words)” value (Urinary KIM-1; urinary KIM-1, protamine with vancomycin) was “a full day of injury prevention”, the “Entry into kidney epithelial cells (in words)” value (opossum kidney cells) was “enters kidney epithelial cells and localizes in the cytoplasm via receptor-mediated endocytosis” and the “Inhibition of gentamicin uptake (in words)” value (opossum kidney cells; cultured opossum kidney cells that expressed megalin and cubilin, ref Nagai and colleagues ([32])) was “inhibited the uptake of gentamicin”. For the same substance, the “Prevention of gentamicin accumulation (in words)” value (opossum kidney cells; kidney epithelial cells) was “has demonstrated prevention of gentamicin accumulation”, the “Inhibition of OCT2 (in words)” value (OCT2; HEK cells) was “does not appear to have significant inhibition on OAT1, OAT3, or OCT2” and the IC50 (OCT2; HEK cells, metformin 100 µM substrate, pre-incubation 30 minutes, 20 minutes with substrate, protamine sulfate in DMSO, Eurofins) was 43 µM. The “Inhibition of OCT2 (in words)” value (OCT2; HEK cells, listed as protamine) was “No substantial inhibition; also recorded: does not have a significant inhibition on OAT1, OAT3, or OCT2 except at extremely high concentrations; also recorded: minor inhibition”, the “IC50 ratio protamine vs verapamil” value (OCT2; OCT2) was 5.2 times higher and the “Inhibition of OCT-2” value (OCT2; at similar concentrations (to 0.1 mM) of protamine, Fig. 6) was “at least 50%”. The “Inhibition of OAT3 (in words)” value (OAT3; CHOK1 cells) was “does not appear to have significant inhibition on OAT1, OAT3, or OCT2”, the IC50 (OAT3; CHOK1 cells, ranitidine 10 µM substrate, pre-incubation 30 minutes, 20 minutes with substrate, protamine sulfate in DMSO, Eurofins) was 100 µM and the “Inhibition of OAT3 (in words)” value (OAT3; [2]) was “No substantial inhibition; also recorded: does not have a significant inhibition on OAT1, OAT3, or OCT2 except at extremely high concentrations; also recorded: little to no inhibition”. The “IC50 ratio protamine vs probenecid” value (OAT3; OAT3) was 58.8 times higher and the “Inhibition of OAT-3” value (OAT3; at 0.1 mM protamine, Fig. 6) was under 50%.
